This is an account of results in patent US9085606B2, “Beta amino acid derivatives as integrin antagonists” (Saint Louis University, priority 2012, dated 2015).

The target in assay [1] is T1, Recombinant human integrin αvβ1 (Homo sapiens, UniProt P05556+P06756).
T1 construct: purchased R&D Systems 6579-AV
Description: Solid Phase Receptor Assay for αvβ1 Function. The note with it: binding to fibronectin-coated plate; read-out: αvβ1 SPRA IC50. Here is the method:
Solid Phase Receptor Assay for αvβ1 Function.
Wells were washed 3 times with 150 μl TBS+ and 150 μL of blocking buffer (TBS+ with 1% bovine serum albumin, Sigma A7906) were added. The plate was incubated for 1 hr at 37° C. and then washed 3× with TBS+ buffer. […] Compounds were diluted 1:100 into the integrin solution and 50 μL added to empty wells of the washed fibronectin-coated plate according to a standard template with each sample repeated in triplicate. After incubation for two hours at room temperature, the plate was washed 3× with 150 μL of TBS+ buffer. To each well, 50 μL of biotinylated anti-αv antibody (R&D Systems, BAF1219) at 1 μg/mL in TBS+/0.1% BSA were added and the plate covered and incubated for 1 hr at room temperature. After washing the plate 3× with 150 μL of TBS+ buffer, 50 μL of streptavidin-conjugated horseradish peroxidase (R&D Systems, DY998) diluted in TBS+ blocking buffer were added to the wells and the plate incubated for 20 min at room temperature. The plate was washed 3× with TBS+ buffer followed by 50 μL of TMB substrate (Sigma, T4444) added to each well and the plate incubated for 20 min at room temperature. The reaction was optionally stopped with 25 μL of Stop Solution (Sigma S5689). Plates were read by colorimetric detection at 650 nm wavelength using a Tecan Safire II plate reader.

Assay [2] addresses T2, Recombinant human integrin αvβ3 (Homo sapiens, UniProt P05106+P06756).
T2 construct: purchased R&D Systems 3050-AV
Description: Solid Phase Receptor Assay for αvβ3 Function. The note with it: binding to vitronectin-coated plate; read-out: αvβ3 SPRA IC50. On the procedure:
Solid Phase Receptor Assay for αvβ3 Function.
Wells were washed 3 times with 150 μL TBS+ and 150 μL of blocking buffer (TBS+ with 1% bovine serum albumin, Sigma A7906) were added. The plate was incubated for 1 hr at 37° C. and then washed 3× with TBS+ buffer. […] Compounds were diluted 1:100 into the integrin solution and then 50 μL added to empty wells of the washed vitronectin-coated plate according to a standard template with each sample repeated in triplicate. After incubation for two hours at room temperature, the plate was washed 3× with 150 μL of TBS+ buffer. To each well, 50 μL of biotinylated anti-αv antibody (R&D Systems, BAF1219) at 0.5 μg/mL in TBS+/0.1% BSA were added and the plate covered and incubated for 1 hr at room temperature. After washing the plate 3× with 150 μL of TBS+ buffer, 50 μL of streptavidin-conjugated horseradish peroxidase (R&D Systems, DY998) diluted in TBS+ blocking buffer were added to the wells and the plate incubated for 20 min at room temperature. The plate was washed 3× with TBS+ buffer followed by 50 μL of TMB substrate (Sigma, T4444) added to each well and the plate was incubated for 20 min at room temperature. The reaction was optionally stopped with 25 μL of Stop Solution (Sigma, S5689). Plates were read by colorimetric detection at 650 nm wavelength using a Tecan S afire II plate reader.

Structures are written as SMILES.

T1 sequence (P06756 31-992 limits assumed): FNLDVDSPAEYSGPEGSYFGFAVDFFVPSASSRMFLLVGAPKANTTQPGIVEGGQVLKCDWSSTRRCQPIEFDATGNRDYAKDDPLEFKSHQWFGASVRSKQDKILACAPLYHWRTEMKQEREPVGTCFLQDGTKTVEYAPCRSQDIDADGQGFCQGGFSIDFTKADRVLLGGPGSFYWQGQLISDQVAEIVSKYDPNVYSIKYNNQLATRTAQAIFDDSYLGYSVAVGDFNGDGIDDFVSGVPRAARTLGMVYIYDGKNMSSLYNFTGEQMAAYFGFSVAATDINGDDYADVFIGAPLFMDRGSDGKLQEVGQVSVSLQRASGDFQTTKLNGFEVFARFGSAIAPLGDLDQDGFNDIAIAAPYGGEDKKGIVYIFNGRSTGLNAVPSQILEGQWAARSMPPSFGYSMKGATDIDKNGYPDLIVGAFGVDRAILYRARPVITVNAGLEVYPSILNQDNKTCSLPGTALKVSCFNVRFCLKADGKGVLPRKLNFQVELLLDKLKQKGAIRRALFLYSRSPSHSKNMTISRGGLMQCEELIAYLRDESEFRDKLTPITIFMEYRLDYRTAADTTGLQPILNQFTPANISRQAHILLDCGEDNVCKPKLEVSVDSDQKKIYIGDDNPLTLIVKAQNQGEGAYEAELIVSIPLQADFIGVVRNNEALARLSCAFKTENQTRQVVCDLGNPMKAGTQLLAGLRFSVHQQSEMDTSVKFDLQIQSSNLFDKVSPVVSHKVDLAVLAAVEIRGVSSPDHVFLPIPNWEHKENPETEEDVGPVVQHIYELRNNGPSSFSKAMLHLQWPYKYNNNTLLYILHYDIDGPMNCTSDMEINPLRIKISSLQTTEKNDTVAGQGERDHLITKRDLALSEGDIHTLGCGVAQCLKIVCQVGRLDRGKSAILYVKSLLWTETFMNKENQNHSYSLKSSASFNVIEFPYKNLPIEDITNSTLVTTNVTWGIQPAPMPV
T1 sequence (P05556 21-728 limits assumed): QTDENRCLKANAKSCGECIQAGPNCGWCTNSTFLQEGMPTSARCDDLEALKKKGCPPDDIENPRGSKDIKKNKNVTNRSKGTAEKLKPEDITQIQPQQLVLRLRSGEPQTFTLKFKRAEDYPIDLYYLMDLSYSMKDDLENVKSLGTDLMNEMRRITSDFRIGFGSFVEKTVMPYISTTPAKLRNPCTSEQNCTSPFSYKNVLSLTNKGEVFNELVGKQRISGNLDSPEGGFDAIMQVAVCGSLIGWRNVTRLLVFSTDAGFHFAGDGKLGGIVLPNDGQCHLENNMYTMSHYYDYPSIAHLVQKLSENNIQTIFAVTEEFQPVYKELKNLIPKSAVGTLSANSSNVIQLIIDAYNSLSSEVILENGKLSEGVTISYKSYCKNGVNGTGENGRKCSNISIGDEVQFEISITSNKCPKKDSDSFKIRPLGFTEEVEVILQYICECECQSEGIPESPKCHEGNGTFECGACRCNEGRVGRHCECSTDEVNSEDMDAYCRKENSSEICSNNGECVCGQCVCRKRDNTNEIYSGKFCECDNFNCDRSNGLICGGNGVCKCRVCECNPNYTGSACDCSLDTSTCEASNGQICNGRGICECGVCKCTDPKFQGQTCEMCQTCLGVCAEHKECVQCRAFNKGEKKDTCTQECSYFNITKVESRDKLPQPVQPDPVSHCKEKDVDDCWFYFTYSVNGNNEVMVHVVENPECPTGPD
T2 sequence (P06756 31-992 limits assumed): as the sequence (P06756 31-992 limits assumed) above
T2 sequence (P05106 27-718 limits assumed): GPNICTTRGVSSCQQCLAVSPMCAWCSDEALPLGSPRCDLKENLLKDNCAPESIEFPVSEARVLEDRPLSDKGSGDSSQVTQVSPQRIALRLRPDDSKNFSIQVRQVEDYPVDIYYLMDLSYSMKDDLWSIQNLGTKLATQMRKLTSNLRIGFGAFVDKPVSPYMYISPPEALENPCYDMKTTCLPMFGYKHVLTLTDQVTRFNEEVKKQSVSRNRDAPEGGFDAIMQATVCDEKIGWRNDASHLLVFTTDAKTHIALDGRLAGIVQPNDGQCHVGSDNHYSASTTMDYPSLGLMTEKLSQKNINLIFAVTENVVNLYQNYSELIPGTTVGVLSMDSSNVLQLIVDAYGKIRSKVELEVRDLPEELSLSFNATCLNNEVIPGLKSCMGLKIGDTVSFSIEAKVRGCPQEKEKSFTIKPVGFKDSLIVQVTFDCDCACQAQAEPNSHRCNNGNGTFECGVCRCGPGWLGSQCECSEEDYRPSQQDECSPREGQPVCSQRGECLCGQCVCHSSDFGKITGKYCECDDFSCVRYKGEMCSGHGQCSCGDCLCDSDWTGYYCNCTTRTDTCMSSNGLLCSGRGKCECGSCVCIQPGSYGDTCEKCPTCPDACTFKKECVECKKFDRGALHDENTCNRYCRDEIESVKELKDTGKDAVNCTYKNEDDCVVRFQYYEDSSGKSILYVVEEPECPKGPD

Broadly, the IC50 is the concentration at which inhibition is half-maximal. As to `CC(C)(C)c1cc(Br)cc([C@H](CC(=O)O)NC(=O)CNC(=O)c2cccc(NC(=N)N)c2)c1` [Example 5, (S)-3-(3-bromo-5-(tert-butyl)phenyl)-3-(2-(3-guanidinobenzamido)acetamido) propanoic acid], the IC50 came to 3.2 nM in assay [1] and 2.6 nM in assay [2].
Take `CC(C)(C)c1cc(-c2cccnc2)cc([C@H](CC(=O)O)NC(=O)CNC(=O)c2cc(O)cc(NC3=NCC(O)CN3)c2)c1` (stereo partly drawn) [Example 18, (3S)-3-(3-(tert-butyl)-5-(pyridin-3-yl)phenyl)-3-(2-(3-hydroxy-5-((5-hydroxy-1,4,5,6-tetrahydropyrimidin-2-yl)amino)benzamido)acetamido)propanoic acid]: the IC50 in assay [1] turned out to be 3.4 nM; in assay [2], 14.5 nM.
In the case of `CC(C)(C)c1cc([C@H](CC(=O)O)NC(=O)CNC(=O)c2cncc(NC(=N)N)c2)cc(C(C)(C)C)c1` [Example 10, (S)-3-(3,5-di-tert-butylphenyl)-3-(2-(5-guanidinonicotinamido)acetamido)propanoic acid], the values for the IC50 in assay [1] and in assay [2] were 2.1 nM and 172 nM, respectively.
In the same order, the values of `CC(C)(CO)c1cc(Cl)cc([C@H](CC(=O)O)NC(=O)CNC(=O)c2cc(O)cc(NC3=NCC(O)CN3)c2)c1` (stereo partly drawn) [Example 15, (3S)-3-(3-chloro-5-(1-hydroxy-2-methylpropan-2-yl)phenyl)-3-(2-(3-hydroxy-5-((5-hydroxy-1,4,5,6-tetrahydropyrimidin-2-yl)amino)benzamido)acetamido)propanoic acid] are 2.9 nM and 3.3 nM.
Take `CC(C)(C#N)c1cc(Br)cc([C@H](CC(=O)O)NC(=O)CNC(=O)c2cc(O)cc(NC3=NCC(O)CN3)c2)c1` (stereo partly drawn) [Example 11, (3S)-3-(3-bromo-5-(2-cyanopropan-2-yl)phenyl)-3-(2-(3-hydroxy-5-((5-hydroxy-1,4,5,6-tetrahydropyrimidin-2-yl)amino)benzamido)acetamido)propanoic acid]: the IC50 was 2.8 nM in assay [1] and 3.4 nM in assay [2].
As to `CC(C)(C)c1cc(Br)cc([C@H](CC(=O)O)NC(=O)CNC(=O)c2cc(O)cc(NC3=NCC(O)CN3)c2)c1O` (stereo partly drawn) [Example 2, (3S)-3-(5-bromo-3-(tert-butyl)-2-hydroxyphenyl)-3-(2-(3-hydroxy-5-((5-hydroxy-1,4,5,6-tetrahydropyrimidin-2-yl)amino)benzamido)acetamido)propanoic acid], the IC50 in assay [1] is 2.2 nM; in assay [2] it was 1.8 nM.
For `CC(C)(C)c1cc(Br)cc([C@H](CC(=O)O)NC(=O)CNC(=O)c2cccc(NC3=NCCN3)c2)c1` [Example 7, (S)-3-(3-bromo-5-(tert-butyl)phenyl)-3-(2-(3-((4,5-dihydro-1H-imidazol-2-yl)amino)benzamido)acetamido)propanoic acid] the same measures were 2.7 nM and 1.3 nM.
As for `COCC(C)(C)c1cc(Cl)cc([C@H](CC(=O)O)NC(=O)CNC(=O)c2cc(O)cc(NC3=NCC(O)CN3)c2)c1` (stereo partly drawn) [Example 14, (3S)-3-(3-chloro-5-(1-methoxy-2-methylpropan-2-yl)phenyl)-3-(2-(3-hydroxy-5-((5-hydroxy-1,4,5,6-tetrahydropyrimidin-2-yl)amino)benzamido)acetamido)propanoic acid], the IC50 in assay [1] is 2.4 nM; in assay [2] it was 1.7 nM.
`CC(C)(O)c1cc(Cl)cc([C@H](CC(=O)O)NC(=O)CNC(=O)c2cc(O)cc(NC3=NCC(O)CN3)c2)c1` (stereo partly drawn) [Example 4, (3S)-3-(3-chloro-5-(2-hydroxypropan-2-yl)phenyl)-3-(2-(3-hydroxy-5-((5-hydroxy-1,4,5,6-tetrahydropyrimidin-2-yl)amino)benzamido)acetamido)propanoic acid]: the IC50 is 1.7 nM in assay [1] and 2.3 nM in assay [2].
For `CC(C)(C)c1cc(Br)cc([C@H](CC(=O)O)NC(=O)CNC(=O)c2cc(O)cc(NC3=NCCN3)c2)c1` [Example 9, (S)-3-(3-bromo-5-(tert-butyl)phenyl)-3-(2-(3-((4,5-dihydro-1H-imidazol-2-yl)amino)-5-hydroxybenzamido)acetamido)propanoic acid] the same measures were 2.4 nM and 2.9 nM.
For `CC(C)(C)c1cc(Br)cc([C@H](CC(=O)O)NC(=O)CNC(=O)c2cncc(NC3=NCC(O)CN3)c2)c1` (stereo partly drawn) [Example 8, (3S)-3-(3-bromo-5-(tert-butyl)phenyl)-3-(2-(5-((5-hydroxy-1,4,5,6-tetrahydropyrimidin-2-yl)amino)nicotinamido)acetamido)propanoic acid] the same measures were 3 nM and 1.5 nM.
For `CC(C)(C)c1cc(-c2cncnc2)cc([C@H](CC(=O)O)NC(=O)CNC(=O)c2cc(O)cc(NC3=NCC(O)CN3)c2)c1` (stereo partly drawn) [Example 19, (3S)-3-(3-(tert-butyl)-5-(pyrimidin-5-yl)phenyl)-3-(2-(3-hydroxy-5-((5-hydroxy-1,4,5,6-tetrahydropyrimidin-2-yl)amino)benzamido)acetamido)propanoic acid], the IC50 in assay [1] was determined as 4.1 nM; in assay [2], 8.8 nM.
For `CC(C)(C)c1cc(C#N)cc([C@H](CC(=O)O)NC(=O)CNC(=O)c2cc(O)cc(NC3=NCC(O)CN3)c2)c1` (stereo partly drawn) [Example 12, (3S)-3-(3-(tert-butyl)-5-cyanophenyl)-3-(2-(3-hydroxy-5-((5-hydroxy-1,4,5,6-tetrahydro-pyrimidin-2-yl)amino)benzamido)acetamido)propanoic acid] the same measures were 2 nM and 2.8 nM.
`O=C(O)C[C@H](NC(=O)CNC(=O)c1cc(O)cc(NC2=NCC(O)CN2)c1)c1cc(Cl)cc(C2(CO)CCOCC2)c1` (stereo partly drawn) [Example 17, (3S)-3-(3-chloro-5-(4-(hydroxymethyl)tetrahydro-2H-pyran-4-yl)phenyl)-3-(2-(3-hydroxy-5-((5-hydroxy-1,4,5,6-tetrahydropyrimidin-2-yl)amino)benzamido)acetamido)propanoic acid]: the values for the IC50 in assay [1] and in assay [2] were 3 nM and 4 nM, respectively.
For `CC(C)(O)c1cc(Br)cc([C@H](CC(=O)O)NC(=O)CNC(=O)c2cc(O)cc(NC3=NCC(O)CN3)c2)c1` (stereo partly drawn) [Example 3, (3S)-3-(3-bromo-5-(2-hydroxypropan-2-yl)phenyl)-3-(2-(3-hydroxy-5-((5-hydroxy-1,4,5,6-tetrahydropyrimidin-2-yl)amino)benzamido)acetamido)propanoic acid] the same measures were 2.2 nM and 2 nM.
For `CC(C)(C)c1cc(Br)cc([C@H](CC(=O)O)NC(=O)CNC(=O)c2cncc(NC(=N)N)c2)c1` [Example 6, (S)-3-(3-bromo-5-(tert-butyl)phenyl)-3-(2-(5-guanidinonicotinamido)acetamido) propanoic acid] the same measures were 4.7 nM and 3.5 nM.
In the same order, the values of `COCC1(c2cc(Cl)cc([C@H](CC(=O)O)NC(=O)CNC(=O)c3cc(O)cc(NC4=NCC(O)CN4)c3)c2)CCOCC1` (stereo partly drawn) [Example 16, (3S)-3-(3-chloro-5-(4-(Methoxymethyl)tetrahydro-2H-pyran-4-yl)phenyl)-3-(2-(3-hydroxy-5-((5-hydroxy-1,4,5,6-tetrahydropyrimidin-2-yl)amino)benzamido)acetamido)propanoic acid] are 3.3 nM and 1.7 nM.
